Measurements published in the supplement of paper PMC10307832.

Legend:
Assay in all cases: relative viability (nuclei count vs DMSO), 5 days (fraction); higher = more cells survive
EPLC-272H = test system: EPLC-272H
In short: (§1)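 Medians of duplicate plates are given as relative viability. That measure is the nuclei count in treated wells divided by the count in vehicle wells. Counts were taken on 4× images of lung cancer cell lines in 1536-well plates, 5 days after pin-tool dosing the day after seeding with one drug alone or a fixed anchor-drug dose plus five library-drug doses (not always all listed) in √10 steps.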

H3255 = test system: H3255
In short: as §1

HARA = test system: HARA
In short: as §1

LC-2-ad = test system: LC-2-ad
In short: as §1

LOU-NH91 = test system: LOU-NH91
In short: as §1

NCI-H1651 = test system: NCI-H1651
In short: as §1

NCI-H1975 = test system: NCI-H1975
In short: as §1

NCI-H2085 = test system: NCI-H2085
In short: as §1

NCI-H2087 = test system: NCI-H2087
In short: as §1

NCI-H2170 = test system: NCI-H2170
In short: as §1

NCI-H23 = test system: NCI-H23
In short: as §1

NCI-H441 = test system: NCI-H441
In short: as §1

NCI-H650 = test system: NCI-H650
In short: as §1

NCI-H727 = test system: NCI-H727
In short: as §1

NCI-H838 = test system: NCI-H838
In short: as §1

PC-3 [JPC-3] = test system: PC-3 [JPC-3]
In short: as §1

SW 900 = test system: SW 900
In short: as §1

## Cc1cn(-c2cc(NC(=O)c3ccc(C)c(Nc4nccc(-c5cccnc5)n4)c3)cc(C(F)(F)F)c2)cn1 [Nilotinib] + NC(=O)Nc1cc(-c2cccc(F)c2)sc1C(=O)N[C@H]1CCCNC1 [AZD7762] (partner 0.2 µM)
EPLC-272H; first compound 0.001 µM
  relative viability: 0.267
EPLC-272H; first compound 0.003162 µM
  relative viability: 0.13
EPLC-272H; first compound 0.01 µM
  relative viability: 0.164
EPLC-272H; first compound 0.03162 µM
  relative viability: 0.186
EPLC-272H; first compound 0.1 µM
  relative viability: 0.198
H3255; first compound 0.001 µM
  relative viability: 0.827
H3255; first compound 0.003162 µM
  relative viability: 0.65
H3255; first compound 0.01 µM
  relative viability: 0.908
H3255; first compound 0.03162 µM
  relative viability: 0.811
H3255; first compound 0.1 µM
  relative viability: 0.733
HARA; first compound 0.001 µM
  relative viability: 0.329
HARA; first compound 0.003162 µM
  relative viability: 0.208
HARA; first compound 0.01 µM
  relative viability: 0.536
HARA; first compound 0.03162 µM
  relative viability: 0.197
HARA; first compound 0.1 µM
  relative viability: 0.245
LC-2-ad; first compound 0.001 µM
  relative viability: 0.855
LC-2-ad; first compound 0.003162 µM
  relative viability: 1.01
LC-2-ad; first compound 0.01 µM
  relative viability: 1.02
LC-2-ad; first compound 0.03162 µM
  relative viability: 0.748
LC-2-ad; first compound 0.1 µM
  relative viability: 0.377
LOU-NH91; first compound 0.001 µM
  relative viability: 0.748
LOU-NH91; first compound 0.003162 µM
  relative viability: 0.742
LOU-NH91; first compound 0.01 µM
  relative viability: 0.772
LOU-NH91; first compound 0.03162 µM
  relative viability: 0.65
LOU-NH91; first compound 0.1 µM
  relative viability: 0.684
NCI-H1651; first compound 0.001 µM
  relative viability: 0.444
NCI-H1651; first compound 0.003162 µM
  relative viability: 0.394
NCI-H1651; first compound 0.01 µM
  relative viability: 0.572
NCI-H1651; first compound 0.03162 µM
  relative viability: 0.401
NCI-H1651; first compound 0.1 µM
  relative viability: 0.239
NCI-H1975; first compound 0.001 µM
  relative viability: 0.622
NCI-H1975; first compound 0.003162 µM
  relative viability: 0.571
NCI-H1975; first compound 0.01 µM
  relative viability: 0.744
NCI-H1975; first compound 0.03162 µM
  relative viability: 0.613
NCI-H1975; first compound 0.1 µM
  relative viability: 0.667
NCI-H2085; first compound 0.001 µM
  relative viability: 0.978
NCI-H2085; first compound 0.003162 µM
  relative viability: 0.942
NCI-H2085; first compound 0.01 µM
  relative viability: 1.03
NCI-H2085; first compound 0.03162 µM
  relative viability: 0.793
NCI-H2085; first compound 0.1 µM
  relative viability: 0.527
NCI-H2087; first compound 0.001 µM
  relative viability: 0.828
NCI-H2087; first compound 0.003162 µM
  relative viability: 1.58
NCI-H2087; first compound 0.01 µM
  relative viability: 1.98
NCI-H2087; first compound 0.03162 µM
  relative viability: 0.86
NCI-H2087; first compound 0.1 µM
  relative viability: 0.893
NCI-H2170; first compound 0.001 µM
  relative viability: 0.744
NCI-H2170; first compound 0.003162 µM
  relative viability: 1.32
NCI-H2170; first compound 0.01 µM
  relative viability: 0.856
NCI-H2170; first compound 0.03162 µM
  relative viability: 0.602
NCI-H2170; first compound 0.1 µM
  relative viability: 0.758
NCI-H23; first compound 0.001 µM
  relative viability: 0.186
NCI-H23; first compound 0.003162 µM
  relative viability: 0.221
NCI-H23; first compound 0.01 µM
  relative viability: 0.154
NCI-H23; first compound 0.03162 µM
  relative viability: 0.152
NCI-H23; first compound 0.1 µM
  relative viability: 0.122
NCI-H441; first compound 0.001 µM
  relative viability: 1.08
NCI-H441; first compound 0.003162 µM
  relative viability: 1.21
NCI-H441; first compound 0.01 µM
  relative viability: 1.19
NCI-H441; first compound 0.03162 µM
  relative viability: 0.714
NCI-H441; first compound 0.1 µM
  relative viability: 0.565
NCI-H650; first compound 0.001 µM
  relative viability: 1.08
NCI-H650; first compound 0.003162 µM
  relative viability: 1.01
NCI-H650; first compound 0.01 µM
  relative viability: 0.914
NCI-H650; first compound 0.03162 µM
  relative viability: 0.918
NCI-H650; first compound 0.1 µM
  relative viability: 0.721
NCI-H727; first compound 0.001 µM
  relative viability: 0.574
NCI-H727; first compound 0.003162 µM
  relative viability: 0.528
NCI-H727; first compound 0.01 µM
  relative viability: 0.456
NCI-H727; first compound 0.03162 µM
  relative viability: 0.573
NCI-H727; first compound 0.1 µM
  relative viability: 0.58
NCI-H838; first compound 0.001 µM
  relative viability: 0.86
NCI-H838; first compound 0.003162 µM
  relative viability: 1.01
NCI-H838; first compound 0.03162 µM
  relative viability: 0.9
NCI-H838; first compound 0.1 µM
  relative viability: 0.995
PC-3 [JPC-3]; first compound 0.001 µM
  relative viability: 0.8
PC-3 [JPC-3]; first compound 0.01 µM
  relative viability: 0.737
PC-3 [JPC-3]; first compound 0.03162 µM
  relative viability: 0.749
PC-3 [JPC-3]; first compound 0.1 µM
  relative viability: 0.527
SW 900; first compound 0.003162 µM
  relative viability: 0.479
SW 900; first compound 0.01 µM
  relative viability: 0.575
SW 900; first compound 0.03162 µM
  relative viability: 0.369
SW 900; first compound 0.1 µM
  relative viability: 0.304
